Source: US20190110990A1, “LIPOPROTEINS CONTAINING PLATINUM COMPLEXES FOR THE TREATMENT OF CANCER” (UNIVERSITE DE BOURGOGNE, priority 2016, published 2019)

Columns and labels:
human macrophages = assay: ROS production by M2 macrophages (DHE labelling, flow cytometry); assay type: cell-based; settings: 2 hours, final cisplatin concentration 25 μM, basal (CTL) 8.2%
Procedure: After 7 days of culture in human M-CSF from Miltenyi, Biotec. (Macrophage Colony-Stimulating Factor) at 100 ng/ml, human macrophages were differentiated, from monocytes, into M2 alternative phenotype macrophages (protumoral). […] The production of reactive oxygen species (ROS, representative of an anti-tumour action) by the macrophages was then determined by flow cytometry after labelling with Dihydroethidium (DHE). […] Furthermore, the native HDLs, native LDLs and the LDL-Cis had no effect on ROS production by the macrophages.
The same protocol was repeated so as to compare the effect between the HDL-Cis and the oxidised LDL lipoproteins charged with cisplatin (LDLox+Cis) (see FIG. 2C). […] The oxidised LDLs were obtained by incubating native
LDLs (cholesterol, 1 mM) for 24 hours at 37° C. in the presence of copper sulphate (5 μM). After oxidation, the oxidised LDLs are dialysed in a PBS buffer.

[1] = test system: SW480 colorectal cancer lines; assay: Cell viability of SW480 cells by flow cytometry; assay type: cell-based; settings: SW480, 48 hours, final cisplatin concentration 25 μM
Procedure: The cell viability was then evaluated by flow cytometry.

In the case of N.N.[Cl][Pt][Cl] [non-vectorised cisplatin, Cis-diamine-dichloro-platinum (II)], the “ROS production / macrophage activation” value (human macrophages) is reported as 18.2% and the cancer cell mortality [1] is reported as 41%.
